Source: ChEMBL document CHEMBL1201862, “PubChem BioAssay data set” (2004)
One block for each compound: values may come before it. Active and inactive are the calls of the source.

What was measured:
Cytochrome P450 2C9 = Cytochrome P450 2C9 (Homo sapiens, UniProt P11712)
CAAX prenyl protease 2 [1] = target: CAAX prenyl protease 2 (Saccharomyces cerevisiae S288c, UniProt Q03530); type: biochemical
CAAX prenyl protease 2 [2] = target: T1, CAAX prenyl protease 2 (Homo sapiens, UniProt Q9Y256); assay: inhibition of Ras-converting CAAX protease Rce1 – biochemical, yeast membranes, quenched-peptide fluorescence, cherry-pick, dose response (AID 588849)
T1 sequence (Q9Y256 whole entry): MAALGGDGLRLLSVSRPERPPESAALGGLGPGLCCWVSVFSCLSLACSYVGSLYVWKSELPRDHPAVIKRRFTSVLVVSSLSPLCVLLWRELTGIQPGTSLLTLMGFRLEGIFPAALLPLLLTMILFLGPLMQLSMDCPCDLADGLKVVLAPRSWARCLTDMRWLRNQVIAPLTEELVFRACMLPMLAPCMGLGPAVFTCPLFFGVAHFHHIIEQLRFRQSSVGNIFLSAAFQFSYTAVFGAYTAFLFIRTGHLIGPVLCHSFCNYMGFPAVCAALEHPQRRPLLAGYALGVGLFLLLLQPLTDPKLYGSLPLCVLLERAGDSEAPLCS

Cytochrome P450 3A4 = Cytochrome P450 3A4 (Homo sapiens, UniProt P08684);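 further: CYP3A4 tested as one member of a cytochrome P450 panel screen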
Cytochrome P450 2C19 = Cytochrome P450 2C19 (Homo sapiens, UniProt P33261); assay: Cytochrome panel assay with activity outcomes. Panel member name: p450-cyp2c19 Compounds with AC50 equal or less than 10 uM are considered active; type: functional; details: read-out: AC50
Trypsin = Trypsin (Sus scrofa, UniProt P00761); assay: trypsin protease activity blockade – biochemical, quenched peptide fluorescence, cherry-pick, selectivity assay for Rce1 protease inhibitor project, dose response (AID 488789)
Hexokinase HKDC1 = target: T2, Hexokinase HKDC1 (Homo sapiens, UniProt Q2TB90); assay: inhibition of HKDC1 glucose phosphorylation – biochemical, W721R variant, dose response (AID 504729); type: functional
T2 sequence (Q2TB90 whole entry): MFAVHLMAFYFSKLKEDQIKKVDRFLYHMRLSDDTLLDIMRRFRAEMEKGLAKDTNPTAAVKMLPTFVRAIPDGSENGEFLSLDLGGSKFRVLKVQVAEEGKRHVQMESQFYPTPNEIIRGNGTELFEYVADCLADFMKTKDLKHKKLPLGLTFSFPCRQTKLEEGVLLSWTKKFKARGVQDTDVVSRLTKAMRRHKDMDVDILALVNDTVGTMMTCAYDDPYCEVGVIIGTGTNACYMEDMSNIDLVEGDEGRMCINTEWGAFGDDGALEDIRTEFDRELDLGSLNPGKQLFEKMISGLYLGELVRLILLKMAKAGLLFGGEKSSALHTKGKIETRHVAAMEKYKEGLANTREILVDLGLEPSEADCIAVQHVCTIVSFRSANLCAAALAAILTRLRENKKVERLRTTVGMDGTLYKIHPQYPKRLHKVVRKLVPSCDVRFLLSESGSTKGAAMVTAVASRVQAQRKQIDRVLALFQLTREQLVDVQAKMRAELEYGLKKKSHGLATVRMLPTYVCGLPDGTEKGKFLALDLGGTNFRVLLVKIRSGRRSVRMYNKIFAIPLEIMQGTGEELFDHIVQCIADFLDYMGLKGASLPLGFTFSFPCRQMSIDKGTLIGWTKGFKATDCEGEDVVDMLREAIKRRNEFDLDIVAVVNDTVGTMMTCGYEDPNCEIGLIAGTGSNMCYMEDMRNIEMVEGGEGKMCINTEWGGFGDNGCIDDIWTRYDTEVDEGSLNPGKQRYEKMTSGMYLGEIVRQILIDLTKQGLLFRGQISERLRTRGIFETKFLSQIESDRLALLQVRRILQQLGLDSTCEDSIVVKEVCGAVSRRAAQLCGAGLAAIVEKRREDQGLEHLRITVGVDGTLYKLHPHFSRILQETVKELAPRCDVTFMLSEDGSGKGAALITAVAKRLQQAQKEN

[3] = target: T3, DNA dC->dU-editing enzyme APOBEC-3A (Homo sapiens, UniProt P31941); assay: Dose Response confirmation of small molecule APOBEC3A DNA Deaminase Inhibitors via a fluorescence-based single-stranded DNA deaminase assay. [Related pubchem assays (depositor defined):AID493011, AID493024]; type: functional
[4] = target: T4, DNA dC->dU-editing enzyme APOBEC-3G (Homo sapiens, UniProt Q9HC16); type: functional
[5] = target: G-protein coupled receptor 35 (Homo sapiens, UniProt Q9HC97); assay: SAR analysis of Antagonists of the GPR35 Receptor using an Image-Based Assay - Set 5. [Related pubchem assays (depositor defined):AID2058, AID2079]; type: functional
[6] = target: G-protein coupled receptor 55 (Homo sapiens, UniProt Q9Y2T6); assay: SAR Analysis of Selective Antagonists of GPR55 using an Image-Based Assay - Set 3. [Related pubchem assays (depositor defined):AID2058, AID2079]; type: functional
[7] = target: T4, DNA dC->dU-editing enzyme APOBEC-3G; assay: Dose Response confirmation of small molecule APOBEC3G DNA Deaminase Inhibitors via a fluorescence-based single-stranded DNA deaminase assay. [Related pubchem assays (depositor defined):AID493012, AID493028]; type: functional
[8] = target: T3, DNA dC->dU-editing enzyme APOBEC-3A; assay: A3A deaminase inhibition for selectivity – biochemical, dose response (AID 504722); type: functional

T4 sequence (Q9HC16 whole entry): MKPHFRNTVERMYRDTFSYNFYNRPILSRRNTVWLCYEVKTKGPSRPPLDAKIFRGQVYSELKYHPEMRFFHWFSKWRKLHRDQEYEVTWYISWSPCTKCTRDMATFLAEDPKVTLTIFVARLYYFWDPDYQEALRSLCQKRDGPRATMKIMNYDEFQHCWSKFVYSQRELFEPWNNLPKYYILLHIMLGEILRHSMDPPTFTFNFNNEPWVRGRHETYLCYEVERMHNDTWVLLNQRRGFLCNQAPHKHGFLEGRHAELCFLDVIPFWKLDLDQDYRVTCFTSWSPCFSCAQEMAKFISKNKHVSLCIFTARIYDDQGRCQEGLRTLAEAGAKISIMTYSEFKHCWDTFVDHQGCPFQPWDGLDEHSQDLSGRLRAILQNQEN
T3 sequence (P31941 whole entry): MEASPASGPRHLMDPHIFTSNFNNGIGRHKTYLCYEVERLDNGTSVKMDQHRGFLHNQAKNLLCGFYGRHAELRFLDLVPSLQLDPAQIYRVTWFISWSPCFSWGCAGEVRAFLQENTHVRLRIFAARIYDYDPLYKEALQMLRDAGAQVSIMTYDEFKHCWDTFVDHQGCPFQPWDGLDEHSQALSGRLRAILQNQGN
Chain of CAAX prenyl protease 2 (Saccharomyces cerevisiae S288c, UniProt Q03530) (Q03530 whole entry): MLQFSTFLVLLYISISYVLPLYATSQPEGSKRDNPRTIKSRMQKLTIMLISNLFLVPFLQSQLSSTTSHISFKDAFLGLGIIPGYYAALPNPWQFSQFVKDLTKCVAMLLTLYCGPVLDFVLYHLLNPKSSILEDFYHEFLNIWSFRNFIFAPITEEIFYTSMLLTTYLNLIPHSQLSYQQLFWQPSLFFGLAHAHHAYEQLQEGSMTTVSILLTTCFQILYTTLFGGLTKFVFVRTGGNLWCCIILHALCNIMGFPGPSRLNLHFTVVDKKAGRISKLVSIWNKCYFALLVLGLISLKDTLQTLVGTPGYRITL
Chain of G-protein coupled receptor 55 (Q9Y2T6 whole entry): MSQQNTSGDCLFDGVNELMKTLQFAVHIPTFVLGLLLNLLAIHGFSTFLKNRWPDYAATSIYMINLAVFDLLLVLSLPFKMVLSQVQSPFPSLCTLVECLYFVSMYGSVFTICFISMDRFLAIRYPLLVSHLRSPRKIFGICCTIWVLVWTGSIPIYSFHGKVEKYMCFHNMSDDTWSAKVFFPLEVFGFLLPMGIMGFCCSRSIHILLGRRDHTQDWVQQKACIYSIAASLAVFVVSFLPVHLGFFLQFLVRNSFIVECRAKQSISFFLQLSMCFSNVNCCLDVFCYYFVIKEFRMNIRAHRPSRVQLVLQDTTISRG
Chain of Cytochrome P450 2C19 (P33261 whole entry): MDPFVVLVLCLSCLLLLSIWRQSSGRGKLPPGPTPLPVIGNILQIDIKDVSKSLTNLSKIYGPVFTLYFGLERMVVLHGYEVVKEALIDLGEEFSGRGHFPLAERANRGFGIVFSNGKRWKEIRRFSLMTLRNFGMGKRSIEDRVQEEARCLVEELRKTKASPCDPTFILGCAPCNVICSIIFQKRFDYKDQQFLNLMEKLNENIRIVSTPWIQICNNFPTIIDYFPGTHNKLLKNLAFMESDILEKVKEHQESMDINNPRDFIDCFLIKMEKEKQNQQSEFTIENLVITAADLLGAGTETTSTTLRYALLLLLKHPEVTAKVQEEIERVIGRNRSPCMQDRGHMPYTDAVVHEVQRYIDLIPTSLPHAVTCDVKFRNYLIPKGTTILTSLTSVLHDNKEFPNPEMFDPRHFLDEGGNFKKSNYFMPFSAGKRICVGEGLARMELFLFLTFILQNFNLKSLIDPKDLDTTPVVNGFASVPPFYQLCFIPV
Chain of Trypsin (P00761 whole entry): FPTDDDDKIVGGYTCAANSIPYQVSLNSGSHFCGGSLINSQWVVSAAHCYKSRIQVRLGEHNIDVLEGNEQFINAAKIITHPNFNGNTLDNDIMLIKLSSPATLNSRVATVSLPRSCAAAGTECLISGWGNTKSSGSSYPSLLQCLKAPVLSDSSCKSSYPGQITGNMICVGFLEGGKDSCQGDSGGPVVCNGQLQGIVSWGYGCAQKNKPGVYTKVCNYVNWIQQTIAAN
Chain of Cytochrome P450 3A4 (P08684 whole entry): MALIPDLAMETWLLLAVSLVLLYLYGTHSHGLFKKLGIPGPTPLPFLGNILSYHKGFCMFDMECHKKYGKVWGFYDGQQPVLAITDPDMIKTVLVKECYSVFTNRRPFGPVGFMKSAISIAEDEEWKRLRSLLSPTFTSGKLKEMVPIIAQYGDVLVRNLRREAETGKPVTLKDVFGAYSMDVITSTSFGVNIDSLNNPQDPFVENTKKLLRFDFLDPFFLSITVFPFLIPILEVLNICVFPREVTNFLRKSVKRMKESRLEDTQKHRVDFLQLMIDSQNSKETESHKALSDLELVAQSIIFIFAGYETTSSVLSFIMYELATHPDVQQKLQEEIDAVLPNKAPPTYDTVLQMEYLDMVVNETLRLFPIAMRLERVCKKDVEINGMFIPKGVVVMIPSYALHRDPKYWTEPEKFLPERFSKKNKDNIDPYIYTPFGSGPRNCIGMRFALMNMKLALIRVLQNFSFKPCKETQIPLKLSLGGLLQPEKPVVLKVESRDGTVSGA
Chain of Cytochrome P450 2C9 (P11712 whole entry): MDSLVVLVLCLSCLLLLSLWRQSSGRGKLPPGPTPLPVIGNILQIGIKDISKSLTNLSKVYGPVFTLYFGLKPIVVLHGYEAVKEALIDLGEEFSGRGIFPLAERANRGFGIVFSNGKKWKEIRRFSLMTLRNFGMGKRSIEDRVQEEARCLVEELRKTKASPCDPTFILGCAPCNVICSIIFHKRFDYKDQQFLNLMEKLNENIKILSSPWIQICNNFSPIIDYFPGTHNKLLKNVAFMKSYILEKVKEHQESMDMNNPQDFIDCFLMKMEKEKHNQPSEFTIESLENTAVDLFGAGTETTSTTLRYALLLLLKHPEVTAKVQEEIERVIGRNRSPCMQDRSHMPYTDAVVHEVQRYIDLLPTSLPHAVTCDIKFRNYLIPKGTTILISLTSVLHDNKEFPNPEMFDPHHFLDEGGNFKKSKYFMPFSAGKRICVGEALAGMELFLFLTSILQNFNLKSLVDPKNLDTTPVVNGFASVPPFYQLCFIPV
Chain of G-protein coupled receptor 35 (Q9HC97 whole entry): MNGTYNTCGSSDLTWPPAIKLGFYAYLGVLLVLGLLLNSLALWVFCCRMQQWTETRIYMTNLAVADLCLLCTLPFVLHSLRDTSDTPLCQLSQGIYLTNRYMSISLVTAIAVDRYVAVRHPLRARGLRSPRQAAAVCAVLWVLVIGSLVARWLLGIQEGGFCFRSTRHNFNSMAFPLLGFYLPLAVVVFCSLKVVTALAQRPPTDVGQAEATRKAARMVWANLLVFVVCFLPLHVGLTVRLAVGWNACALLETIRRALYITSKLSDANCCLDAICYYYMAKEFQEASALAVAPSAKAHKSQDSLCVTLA

Compound: CCc1nc2sc3c(O)ncnc3c2c2c1CSC(C)(C)C2
IC50 (Hexokinase HKDC1): 26 µM (inactive)

Compound: COc1ccc(C(=O)NC(C)c2nnc(SCc3ccc(Cl)c(Cl)c3)n2C)cc1 (stereo not drawn)
IC50 [3]: 3.87 µM (active) | IC50 [4]: 5.45 µM (active)

Compound: COc1cccc(/C=N/n2c(S)nnc2-c2cc(C)[nH]n2)c1
IC50 [7]: 5.19 µM (active) | IC50 [8]: > 100 µM (inactive)

Other lines, results leading:

AC50 (Cytochrome P450 2C9): 39.8 µM (inconclusive) | AC50 (CAAX prenyl protease 2 [1]): 3.45 µM (active) | AC50 (CAAX prenyl protease 2 [2]): 0.914 µM (active) | AC50 (Cytochrome P450 3A4): 28.2 µM (inconclusive) | AC50 (Cytochrome P450 2C19): 28.2 µM (inconclusive) | AC50 (Trypsin): 15.5 µM (active)
Compound: Cc1cccc(Nc2ccccc2C(=O)OCC(=O)N(C)C2CCS(=O)(=O)C2)c1C (stereo not drawn)

IC50 [5]: > 32 µM (inactive) | IC50 [6]: > 32 µM (inactive)
Compound: NC(=S)N/N=C/c1c[nH]nc1-c1ccccc1
